From patent US20140205537A1, “LRRK2 INHIBITORS” (ZENOBIA THERAPEUTICS, INC., priority 2011, published 2014)

What was measured:
Format in all cases: biochemical
CHEK1 = biological target: T1, CHEK1 (Homo sapiens, UniProt O14757); test: Kinase selectivity panel: CHEK1
T1 sequence (O14757 1-476): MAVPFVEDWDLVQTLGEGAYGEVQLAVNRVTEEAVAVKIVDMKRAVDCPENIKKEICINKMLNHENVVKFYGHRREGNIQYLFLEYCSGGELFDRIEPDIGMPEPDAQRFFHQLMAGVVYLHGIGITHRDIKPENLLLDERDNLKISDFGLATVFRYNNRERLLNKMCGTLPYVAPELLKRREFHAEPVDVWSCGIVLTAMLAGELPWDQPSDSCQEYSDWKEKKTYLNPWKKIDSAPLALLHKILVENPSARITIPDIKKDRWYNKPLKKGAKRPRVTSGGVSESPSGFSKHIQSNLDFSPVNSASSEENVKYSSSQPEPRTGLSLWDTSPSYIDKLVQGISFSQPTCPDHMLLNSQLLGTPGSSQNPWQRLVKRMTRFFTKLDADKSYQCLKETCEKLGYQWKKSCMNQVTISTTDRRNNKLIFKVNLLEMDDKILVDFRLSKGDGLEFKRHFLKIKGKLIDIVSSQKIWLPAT

PLK1 = PLK1 (Homo sapiens, UniProt P53350); test: Kinase selectivity panel: PLK1
HER2 = HER2 (Homo sapiens, UniProt P04626); test: Kinase selectivity panel: HER2
PKA = PKA (Homo sapiens, UniProt P17612); test: Kinase selectivity panel: PKA
AKT1 = AKT1 (Homo sapiens, UniProt P31749); test: Kinase selectivity panel: AKT1
AKT1, sequence (P31749 whole entry, species assumed): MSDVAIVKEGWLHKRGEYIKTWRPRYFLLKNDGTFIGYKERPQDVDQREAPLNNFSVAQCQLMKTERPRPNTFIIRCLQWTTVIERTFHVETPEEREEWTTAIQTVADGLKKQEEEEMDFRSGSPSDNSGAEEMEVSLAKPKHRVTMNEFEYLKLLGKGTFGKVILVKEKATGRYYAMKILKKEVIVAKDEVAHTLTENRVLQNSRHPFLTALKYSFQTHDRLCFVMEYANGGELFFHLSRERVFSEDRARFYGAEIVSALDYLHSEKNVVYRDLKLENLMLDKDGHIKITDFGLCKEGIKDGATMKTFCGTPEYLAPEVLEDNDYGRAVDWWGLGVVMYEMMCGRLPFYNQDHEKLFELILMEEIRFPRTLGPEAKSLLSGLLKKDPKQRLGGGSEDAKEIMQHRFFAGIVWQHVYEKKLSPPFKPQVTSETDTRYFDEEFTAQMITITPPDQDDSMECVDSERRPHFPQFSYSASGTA

TRKA = TRKA (Homo sapiens, UniProt P04629); test: Kinase selectivity panel: TRKA
MAPKAPK2 = MAPKAPK2 (Homo sapiens, UniProt P49137); test: Kinase selectivity panel: MAPKAPK2
NEK1 = NEK1 (Homo sapiens, UniProt Q96PY6); test: Kinase selectivity panel: NEK1
EPHA2 = EPHA2 (Homo sapiens, UniProt P29317); test: Kinase selectivity panel: EPHA2
EPHA2, sequence (P29317 24-976, species assumed): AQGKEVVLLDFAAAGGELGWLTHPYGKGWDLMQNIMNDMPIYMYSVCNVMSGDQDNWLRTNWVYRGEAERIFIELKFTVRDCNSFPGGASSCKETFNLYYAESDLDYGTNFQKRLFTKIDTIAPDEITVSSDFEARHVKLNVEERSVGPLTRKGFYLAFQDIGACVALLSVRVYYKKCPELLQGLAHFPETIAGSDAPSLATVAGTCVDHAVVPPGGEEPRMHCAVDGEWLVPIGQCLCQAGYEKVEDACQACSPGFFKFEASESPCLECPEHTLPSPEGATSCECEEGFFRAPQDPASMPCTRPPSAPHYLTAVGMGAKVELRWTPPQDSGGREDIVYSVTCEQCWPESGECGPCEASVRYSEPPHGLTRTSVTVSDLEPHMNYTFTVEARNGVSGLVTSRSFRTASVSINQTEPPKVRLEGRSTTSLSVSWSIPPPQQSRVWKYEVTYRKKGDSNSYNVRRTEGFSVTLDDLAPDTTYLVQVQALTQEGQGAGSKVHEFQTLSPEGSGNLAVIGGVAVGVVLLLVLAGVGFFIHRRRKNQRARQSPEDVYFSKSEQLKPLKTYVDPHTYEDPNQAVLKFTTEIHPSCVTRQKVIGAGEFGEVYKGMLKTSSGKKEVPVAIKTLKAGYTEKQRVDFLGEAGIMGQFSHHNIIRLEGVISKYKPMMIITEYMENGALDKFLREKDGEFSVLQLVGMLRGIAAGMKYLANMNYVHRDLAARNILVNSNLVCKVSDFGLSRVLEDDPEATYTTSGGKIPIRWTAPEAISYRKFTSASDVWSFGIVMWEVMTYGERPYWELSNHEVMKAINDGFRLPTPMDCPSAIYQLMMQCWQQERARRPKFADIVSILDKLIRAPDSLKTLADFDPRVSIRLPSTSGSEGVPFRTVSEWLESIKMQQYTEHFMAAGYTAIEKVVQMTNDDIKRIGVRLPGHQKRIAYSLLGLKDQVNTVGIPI

RSK2 = RSK2 (Homo sapiens, UniProt P51812); test: Kinase selectivity panel: RSK2
mTOR = mTOR (Homo sapiens, UniProt P42345); test: Kinase selectivity panel: mTOR
FLT3 = FLT3 (Homo sapiens, UniProt P36888); test: Kinase selectivity panel: FLT3
KDR = KDR (Homo sapiens, UniProt P35968); test: Kinase selectivity panel: KDR
PDGFRbeta = PDGFRbeta (Homo sapiens, UniProt P09619); test: Kinase selectivity panel: PDGFRbeta
PDGFRbeta, sequence (P09619 33-1106, species assumed): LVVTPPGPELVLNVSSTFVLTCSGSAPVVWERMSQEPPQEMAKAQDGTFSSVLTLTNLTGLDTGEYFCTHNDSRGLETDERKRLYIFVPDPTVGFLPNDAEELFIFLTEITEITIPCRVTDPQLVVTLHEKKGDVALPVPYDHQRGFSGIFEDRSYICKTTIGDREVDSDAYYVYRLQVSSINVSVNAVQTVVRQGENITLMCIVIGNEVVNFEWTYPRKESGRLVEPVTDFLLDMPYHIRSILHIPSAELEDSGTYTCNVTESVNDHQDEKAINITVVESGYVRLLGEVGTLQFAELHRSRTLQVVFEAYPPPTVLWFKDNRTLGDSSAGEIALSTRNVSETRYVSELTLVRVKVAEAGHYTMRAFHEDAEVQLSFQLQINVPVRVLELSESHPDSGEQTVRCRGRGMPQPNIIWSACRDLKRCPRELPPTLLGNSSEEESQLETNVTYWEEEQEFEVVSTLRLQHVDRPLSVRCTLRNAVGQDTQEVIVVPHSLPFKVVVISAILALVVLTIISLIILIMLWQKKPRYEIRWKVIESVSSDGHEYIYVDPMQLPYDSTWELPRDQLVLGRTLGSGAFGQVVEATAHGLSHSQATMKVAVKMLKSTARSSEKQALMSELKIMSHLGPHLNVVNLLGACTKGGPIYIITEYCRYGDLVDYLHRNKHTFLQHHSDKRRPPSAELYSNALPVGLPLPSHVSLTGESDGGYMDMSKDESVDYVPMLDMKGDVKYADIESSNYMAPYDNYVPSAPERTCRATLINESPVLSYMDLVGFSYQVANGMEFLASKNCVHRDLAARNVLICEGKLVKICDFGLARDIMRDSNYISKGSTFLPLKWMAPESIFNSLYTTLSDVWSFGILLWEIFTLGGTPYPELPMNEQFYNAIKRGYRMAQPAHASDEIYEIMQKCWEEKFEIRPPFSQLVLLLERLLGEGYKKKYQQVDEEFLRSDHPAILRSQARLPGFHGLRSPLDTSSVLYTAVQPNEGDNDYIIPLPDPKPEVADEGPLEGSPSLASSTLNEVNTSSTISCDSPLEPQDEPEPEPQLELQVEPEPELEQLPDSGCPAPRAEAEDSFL

HGK = HGK (Homo sapiens, UniProt O95819); test: Kinase selectivity panel: HGK
CK2 alpha 1 = CK2 alpha 1 (Homo sapiens, UniProt P68400); test: Kinase selectivity panel: CK2 alpha 1
MARK2 = MARK2 (Homo sapiens, UniProt Q7KZI7); test: Kinase selectivity panel: MARK2
MARK2, sequence (Q7KZI7 whole entry, species assumed): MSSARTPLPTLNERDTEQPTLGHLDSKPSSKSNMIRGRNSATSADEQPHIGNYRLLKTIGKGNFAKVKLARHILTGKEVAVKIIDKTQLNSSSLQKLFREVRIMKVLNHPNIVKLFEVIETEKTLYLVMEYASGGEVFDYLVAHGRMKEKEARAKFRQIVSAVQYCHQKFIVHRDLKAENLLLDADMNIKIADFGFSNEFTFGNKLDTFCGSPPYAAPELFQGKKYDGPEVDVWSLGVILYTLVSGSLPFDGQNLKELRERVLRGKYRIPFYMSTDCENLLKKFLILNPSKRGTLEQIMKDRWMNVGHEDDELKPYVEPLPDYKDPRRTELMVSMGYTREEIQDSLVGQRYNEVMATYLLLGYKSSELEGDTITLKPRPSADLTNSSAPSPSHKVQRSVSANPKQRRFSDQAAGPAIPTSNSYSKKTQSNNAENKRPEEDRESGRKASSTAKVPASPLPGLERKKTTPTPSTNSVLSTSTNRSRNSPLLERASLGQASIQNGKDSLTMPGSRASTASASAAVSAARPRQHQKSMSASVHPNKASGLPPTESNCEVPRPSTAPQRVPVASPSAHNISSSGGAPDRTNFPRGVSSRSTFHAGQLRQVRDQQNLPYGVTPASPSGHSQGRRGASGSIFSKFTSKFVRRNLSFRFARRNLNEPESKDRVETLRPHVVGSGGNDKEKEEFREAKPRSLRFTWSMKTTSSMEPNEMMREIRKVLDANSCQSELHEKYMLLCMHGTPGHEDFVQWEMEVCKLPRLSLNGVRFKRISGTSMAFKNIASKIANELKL

INSR = INSR (Homo sapiens, UniProt P06213); test: Kinase selectivity panel: INSR
SRC = SRC (Homo sapiens, UniProt P12931); test: Kinase selectivity panel: SRC
Tie2 = Tie2 (Homo sapiens, UniProt Q02763); test: Kinase selectivity panel: Tie2
CDK5/p35 = CDK5/p35 (Homo sapiens, UniProt Q00535); test: Kinase selectivity panel: CDK5/p35
CDK5/p35, sequence (Q00535 whole entry, species assumed): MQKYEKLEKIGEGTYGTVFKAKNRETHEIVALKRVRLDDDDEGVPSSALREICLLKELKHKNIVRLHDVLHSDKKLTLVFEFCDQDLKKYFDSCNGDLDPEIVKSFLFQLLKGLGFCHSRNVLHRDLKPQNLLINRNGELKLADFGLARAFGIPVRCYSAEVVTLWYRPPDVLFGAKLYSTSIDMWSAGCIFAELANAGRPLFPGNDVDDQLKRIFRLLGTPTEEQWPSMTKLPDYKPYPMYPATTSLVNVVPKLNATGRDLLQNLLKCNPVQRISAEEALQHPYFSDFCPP
CDK5/p35, sequence (Q15078 whole entry partner, species assumed): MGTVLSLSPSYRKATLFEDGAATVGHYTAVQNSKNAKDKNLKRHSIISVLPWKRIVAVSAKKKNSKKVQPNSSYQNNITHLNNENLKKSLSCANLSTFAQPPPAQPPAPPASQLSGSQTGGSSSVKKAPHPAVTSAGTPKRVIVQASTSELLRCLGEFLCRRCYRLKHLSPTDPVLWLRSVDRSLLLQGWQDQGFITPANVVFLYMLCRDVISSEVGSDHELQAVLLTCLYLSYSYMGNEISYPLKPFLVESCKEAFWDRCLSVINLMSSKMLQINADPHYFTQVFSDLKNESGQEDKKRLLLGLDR

PKC beta1 = PKC beta1 (Homo sapiens, UniProt P05771); test: Kinase selectivity panel: PKC beta1
JNK1 = JNK1 (Homo sapiens, UniProt P45983); test: Kinase selectivity panel: JNK1
RET = RET (Homo sapiens, UniProt P07949); test: Kinase selectivity panel: RET
P70S6K = P70S6K (Homo sapiens, UniProt P23443); test: Kinase selectivity panel: P70S6K
P70S6K, sequence (P23443 whole entry): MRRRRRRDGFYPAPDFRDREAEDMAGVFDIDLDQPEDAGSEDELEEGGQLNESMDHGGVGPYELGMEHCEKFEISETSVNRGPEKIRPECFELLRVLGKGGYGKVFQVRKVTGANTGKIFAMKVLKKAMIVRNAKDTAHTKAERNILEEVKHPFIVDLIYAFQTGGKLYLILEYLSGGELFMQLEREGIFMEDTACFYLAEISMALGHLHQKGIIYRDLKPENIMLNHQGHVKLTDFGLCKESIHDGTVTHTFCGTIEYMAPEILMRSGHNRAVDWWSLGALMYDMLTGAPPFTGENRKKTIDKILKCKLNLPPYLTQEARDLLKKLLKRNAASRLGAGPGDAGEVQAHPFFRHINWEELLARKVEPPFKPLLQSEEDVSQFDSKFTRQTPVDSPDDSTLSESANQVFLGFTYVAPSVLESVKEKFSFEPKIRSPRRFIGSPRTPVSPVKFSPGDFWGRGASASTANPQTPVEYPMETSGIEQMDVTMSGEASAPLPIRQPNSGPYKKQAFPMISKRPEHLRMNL

CAMK2D = CAMK2D (Homo sapiens, UniProt Q13557); test: Kinase selectivity panel: CAMK2D
CAMK2D, sequence (Q13557 whole entry, species assumed): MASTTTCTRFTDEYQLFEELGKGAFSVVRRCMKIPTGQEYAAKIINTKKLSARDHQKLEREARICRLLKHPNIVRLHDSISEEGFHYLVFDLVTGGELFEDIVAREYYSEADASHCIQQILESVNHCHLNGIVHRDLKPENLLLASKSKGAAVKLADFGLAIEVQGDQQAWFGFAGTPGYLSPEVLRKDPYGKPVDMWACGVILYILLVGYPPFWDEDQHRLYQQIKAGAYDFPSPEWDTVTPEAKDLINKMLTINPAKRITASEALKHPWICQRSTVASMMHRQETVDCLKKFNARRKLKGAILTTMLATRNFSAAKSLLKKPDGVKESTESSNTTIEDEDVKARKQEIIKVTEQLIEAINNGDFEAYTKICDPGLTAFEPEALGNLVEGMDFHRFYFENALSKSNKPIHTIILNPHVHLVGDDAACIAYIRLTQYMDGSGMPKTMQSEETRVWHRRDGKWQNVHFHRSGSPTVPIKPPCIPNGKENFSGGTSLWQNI

CDK1/cyclinB = CDK1/cyclinB (Homo sapiens, UniProt P06493); test: Kinase selectivity panel: CDK1/cyclinB
IRAK4 = biological target: T2, IRAK4 (Homo sapiens, UniProt Q9NWZ3); test: Kinase selectivity panel: IRAK4
T2 sequence (Q9NWZ3 1-460): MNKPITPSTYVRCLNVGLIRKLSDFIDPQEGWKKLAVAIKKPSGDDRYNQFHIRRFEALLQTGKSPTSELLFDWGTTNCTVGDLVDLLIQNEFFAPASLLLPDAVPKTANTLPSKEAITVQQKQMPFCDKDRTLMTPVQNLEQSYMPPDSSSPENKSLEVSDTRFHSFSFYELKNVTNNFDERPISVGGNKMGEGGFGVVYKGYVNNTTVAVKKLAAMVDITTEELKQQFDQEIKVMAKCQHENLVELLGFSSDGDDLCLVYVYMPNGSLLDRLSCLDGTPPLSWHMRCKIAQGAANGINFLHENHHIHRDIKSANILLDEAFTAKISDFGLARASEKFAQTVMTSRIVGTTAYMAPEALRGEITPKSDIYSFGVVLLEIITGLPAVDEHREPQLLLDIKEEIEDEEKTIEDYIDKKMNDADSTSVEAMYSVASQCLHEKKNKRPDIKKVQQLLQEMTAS

IC50 (CHEK1): > 10 µM
inhibition at 0.1 µM (CHEK1; @0.1 uM): 3%
inhibition at 0.1 µM (PLK1): 12%
inhibition at 0.1 µM (HER2): 4%
inhibition at 0.1 µM (PKA): 2%
inhibition at 0.1 µM (AKT1): -2%
inhibition at 0.1 µM (TRKA): 11%
inhibition at 0.1 µM (MAPKAPK2): 4%
inhibition at 0.1 µM (NEK1): 10%
inhibition at 0.1 µM (EPHA2): 2%
inhibition at 0.1 µM (RSK2): 3%
inhibition at 0.1 µM (mTOR): 12%
inhibition at 0.1 µM (FLT3): 8%
inhibition at 0.1 µM (KDR): 1%
inhibition at 0.1 µM (PDGFRbeta): 4%
inhibition at 0.1 µM (HGK): -18%
inhibition at 0.1 µM (CK2 alpha 1): 6%
IC50 (MARK2): 7.94 µM
inhibition at 0.1 µM (MARK2; @0.1 uM): 5%
inhibition at 0.1 µM (INSR): 4%
inhibition at 0.1 µM (SRC): 13%
inhibition at 0.1 µM (Tie2): -2%
IC50 (CDK5/p35): > 10 µM
inhibition at 0.1 µM (CDK5/p35; @0.1 uM): 1%
inhibition at 0.1 µM (PKC beta1): 4%
inhibition at 0.1 µM (JNK1): -5%
inhibition at 0.1 µM (RET): 3%
inhibition at 0.1 µM (P70S6K): 5%
IC50 (CAMK2D): 0.276 µM
inhibition at 0.1 µM (CAMK2D; @0.1 uM): 41%
inhibition at 0.1 µM (CDK1/cyclinB): 0%
IC50 (IRAK4): > 10 µM
inhibition at 0.1 µM (IRAK4; @0.1 uM): -1%
SMILES: COc1ccc2c(c1)/C(=C/c1cnc(C3CCOCC3)[nH]1)C(=O)N2 [Compound 18, (3Z)-5-methoxy-3-[(2-tetrahydropyran-4-yl-1H-imidazol-5-yl)methylene]indolin-2-one]
